Assays:
P. syringae [1] = assay: Toxicity to P. syringae liquid culture (CFU count); conditions: liquid culture treated 2 hours
Experimental: To study whether the optimized NaAc recipe is toxic to P. syringae, a P. syringae liquid culture was treated with 0.1 mM FeAc, 100 mM NaAc, and the optimized recipe (1 mM NaAc and 0.1 mM FeAc) respectively for 2 hours. The treated and control (untreated) cultures were then diluted for counting bacterial CFUs.

[2] = system: wild-type P. syringae pv. tomato; conditions: 6 day post inoculation
Experimental: To study the effect of concentration of NaAc on inhibiting growth of P. syringae, 2×10^4 CFU/ml of wild-type P. syringae pv. tomato bacteria were injected into the tomato leaves. Then, the inoculated leaves were sprayed with water and 0.1-100 mM NaAc. Three 1 cm^2 leaf disks at 6 day post inoculation were homogenated and diluted in water to count bacterial CFUs.

wild-type P. syringae [3] = system: wild-type P. syringae
wild-type P. syringae [4] = conditions: 10 mM NaAc, 6 days after inoculation, 2×10^4 CFU/ml
bean leaf = assay: Toxicity to host plant leaves after injection
Experimental: Furthermore, to study whether the optimized NaAc recipe is toxic to a host plant, aqueous solutions of 0.1 mM FeAc, 100 mM NaAc, and the optimized recipe (1 mM NaAc and 0.1 mM FeAc) were respectively injected into tomato and bean leaves and inoculated for 6 days.

P. syringae [5] = conditions: conventional agent, comparison; cited from earlier work
hrpL = assay: hrpL-lux activity (hrpL expression) in wild-type P. syringae; type: cell-based; conditions: 1 mM of each salt
Experimental: To study the inhibitory effect of different acetate salts to inhibit P. syringae, 1 mM of 12 acetate salts was tested on the expression of hrpL, namely on hrpL-lux activities, in the wild-type P. syringae. The 12 acetate salts included acetate salts of lithium (Li), potassium (K), magnesium (Mg), sodium (Na), calcium (Ca), manganese (Mn), aluminium (Al), nickel (Ni), acetic acid (denoted as HAc), copper (Cu), ammonium (NH4), and iron (Fe).

**Q.** For `CC(=O)[O-].[Na+]` [NaAc, sodium acetate], which “toxicity to P. syringae” value (P. syringae [1]) is on record?
**A.** The value was “not toxic”.

**Q.** What about the “difference in bacterial CFU between water control and NaAc spray” value ([2]; tomato leaf, 0.1-100 mM spray, P<0.05) of the same compound?
**A.** The value was “significant”.

**Q.** And the “best concentration for reducing bacterial growth” value ([2]; tomato, of concentrations from 0.1 mM to 100 mM)?
**A.** Its value is 100 mM.

**Q.** What about the “bacterial pathogenicity (disease symptoms) on tomato leaf” value (wild-type P. syringae [3]; 10 mM NaAc, 6 days after inoculation, 2×10^4 CFU/ml) of the same compound?
**A.** The value was “significantly reduced bacterial pathogenicity”.

**Q.** What about the “concentration removing infection symptom” value (wild-type P. syringae [3]; host plant not named at this place) of the same compound?
**A.** The value was 10 mM.

**Q.** What about the “bacterial pathogenicity (disease symptoms) on bean leaf” value (wild-type P. syringae [4]) of the same compound?
**A.** Its value is “significantly reduced bacterial pathogenicity”.

**Q.** And the “toxicity to host plant leaf” value (bean leaf; injected into leaf, 6 days)?
**A.** The value was “not toxic”.

**Q.** And the “toxicity or resistance on plant” value (bean leaf; plant)?
**A.** Its value is “no toxicity or resistance on plant”.

**Q.** Which “minimum inhibitory concentration (MIC)” value (P. syringae [5]) does the source give for `O=S(=O)([O-])[O-].[Cu+2]` [copper sulfate] here?
**A.** The value was 3000 µM.

**Q.** With `CC(=O)[O-].CC(=O)[O-].[Fe+2]` [iron acetate] as the compound, how does the “inhibitory effect on hrpL-lux activities, rank among 12 acetate salts” value (hrpL) read?
**A.** Its value is “best inhibitory effect”.

**Q.** For `[H]/N=C(/N)N[C@H]1[C@H](O)[C@@H](O)[C@H](O[C@@H]2O[C@@H](C)[C@](O)(C=O)[C@H]2O[C@@H]2O[C@@H](CO)[C@H](O)[C@@H](O)[C@@H]2NC)[C@@H](N/C(N)=N\[H])[C@@H]1O` [streptomycin], which “minimum inhibitory concentration (MIC)” value (P. syringae [5]) is on record?
**A.** Its value is 1000 µg/mL.
